{"source": "patent US20150344466A1", "about": "(SUMITOMO CHEMICAL COMPANY, LIMITED, priority 2013, published 2015)"}
{"test_system": "Blattella germanica", "test": "Knockdown spray test on Blattella germanica, 0.1% w/v oil formulation (Test Example 2)", "assay_type": "in vivo", "details": "topical, 0.25 h, active ingredient 0.1% w/v, 1.5 ml sprayed, within 15 minutes, read-out: knockdown rate of the test insects within 15 minutes", "method": "Ten Blattella germanica (5 males and 5 females) were released in a test container (8.75 cm in diameter, 7.5 cm in height, and the bottom made of 16 mesh metallic wire) with the inner wall on which butter was applied, and the container was placed on the bottom of a test chamber (bottom: 46 cm×46 cm, height: 70 cm). From a height of 60 cm above the upper surface of the container, 1.5 ml of the test drug solution was sprayed using a spray gun (a spraying pressure of 0.42 kg/cm^2). Thirty seconds after spraying, the container was taken out from the test chamber, and after 2 minutes, 5 minutes and 15 minutes, the number of knocked-down insects was counted to obtain a knockdown rate. The knockdown rate was calculated by the following equation.\n(§1) Knockdown Rate (%)=(Number of Knocked-down Insects/Number of Tested Insects)×100", "units": {"pest or weed control at 0.1 % strength": "%"}}
{"smiles": "O=C(NCC1CCOC1)c1cc(Cc2cccc(-c3ccccc3)c2)on1", "note": "(centres unmarked) [(327)]", "pest or weed control at 0.1 % strength": "≥ 80"}
{"smiles": "O=C(NCC1CCOC1)c1cc(COCc2ccc(F)c(F)c2)on1", "note": "(centres unmarked) [(263), N-(tetrahydrofuran-3-ylmethyl)-5-(3,4-difluorobenzyloxymethyl)isoxazole-3-carboxamide]", "pest or weed control at 0.1 % strength": "≥ 80"}
{"smiles": "Cc1c(C(=O)NCC2CCOC2)noc1COCc1cccc(F)c1", "note": "(centres unmarked) [(217), N-(tetrahydrofuran-3-ylmethyl)-5-(3-fluorobenzyloxymethyl)-4-methylisoxazole-3-carboxamide]", "pest or weed control at 0.1 % strength": "≥ 80"}
{"smiles": "O=Cc1c(C(=O)NCC2CCOC2)noc1COCc1ccccc1", "note": "(centres unmarked) [(165), N-(tetrahydrofuran-3-ylmethyl)-(5-benzyloxymethyl-4-formyl) isoxazole-3-carboxamide]", "pest or weed control at 0.1 % strength": "≥ 80"}
{"test_system": "Culex pipiens pallens", "test": "Knockdown spray test on adult Culex pipiens pallens (Test Example 4)", "assay_type": "in vivo", "details": "topical, 0.25 h, active ingredient 0.1% w/v, 0.5 ml sprayed, within 15 minutes, read-out: knockdown rate of the test insects within 15 minutes", "method": "Ten adult Culex pipiens pallens were released in a polyethylene cup (bottom diameter: 10.6 cm), and the cup was covered with a 16-mesh nylon gauze. The polyethylene cup was placed on the bottom of a test chamber (bottom: 46 cm×46 cm, height: 70 cm). From a height of 30 cm above the upper surface of the polyethylene cup, 0.5 ml of the test drug solution was sprayed using a spray gun (a spraying pressure of 0.4 kg/cm^2). Immediately after spraying, the cup was taken out from the test chamber, and after 2 minutes, 5 minutes and 15 minutes, the number of knocked-down insects was counted to obtain a knockdown rate. The knockdown rate was calculated by the following equation.\nas §1", "units": {"pest or weed control at 0.1 % strength": "%"}}
{"smiles": "O=C(NCC1CCOC1)c1cc(Cc2cccc(-c3ccccc3)c2)on1", "note": "(centres unmarked) [(327)]", "pest or weed control at 0.1 % strength": "≥ 80"}
{"smiles": "O=C(NCC1CCOC1)c1cc(COCc2ccc(F)c(F)c2)on1", "note": "(centres unmarked) [(263), N-(tetrahydrofuran-3-ylmethyl)-5-(3,4-difluorobenzyloxymethyl)isoxazole-3-carboxamide]", "pest or weed control at 0.1 % strength": "≥ 80"}
{"smiles": "Cc1c(C(=O)NCC2CCOC2)noc1COCc1cccc(F)c1", "note": "(centres unmarked) [(217), N-(tetrahydrofuran-3-ylmethyl)-5-(3-fluorobenzyloxymethyl)-4-methylisoxazole-3-carboxamide]", "pest or weed control at 0.1 % strength": "≥ 80"}
{"smiles": "O=C(NCC1CCOC1)c1cc(Cc2ccc(C(F)(F)F)cc2)on1", "note": "(centres unmarked) [(316), N-(tetrahydrofuran-3-ylmethyl)-5-(4-trifluoromethylbenzyl)isoxazole-3-carboxamide]", "pest or weed control at 0.1 % strength": "≥ 80"}
{"smiles": "O=C(NCC1CCOCC1)c1cc(COCc2ccsc2)on1", "note": "[(108), N-(tetrahydropyran-4-ylmethyl)-5-(thiophen-3-ylmethoxymethyl)isoxazole-3-carboxamide]", "pest or weed control at 0.1 % strength": "≥ 80"}
{"smiles": "Cc1c(F)c(F)c(COCc2cc(C(=O)NCC3CCOC3)no2)c(F)c1F", "note": "(centres unmarked) [(273), N-(tetrahydrofuran-3-ylmethyl)-5-(4-methyl-2,3,5,6-tetrafluorobenzyloxymethyl)isoxazole-3-carboxamide]", "pest or weed control at 0.1 % strength": "≥ 80"}
{"smiles": "Cc1c(COCc2cc(C(=O)NCC3CCOC3)no2)cccc1-c1ccccc1", "note": "(centres unmarked) [(123), N-(tetrahydrofuran-3-ylmethyl)-5-(2-methyl-3-phenylbenzyloxymethyl)isoxazole-3-carboxamide]", "pest or weed control at 0.1 % strength": "≥ 80"}
{"smiles": "O=C(NCC1CCOC1)c1noc(COCc2ccccc2F)c1Br", "note": "(centres unmarked) [(296), N-(tetrahydrofuran-3-ylmethyl)-5-(2-fluorobenzyloxymethyl)-4-bromoisoxazole-3-carboxamide]", "pest or weed control at 0.1 % strength": "≥ 80"}
{"smiles": "O=C(NCC1CCOCC1)c1cc(COc2ccc(F)cc2)on1", "note": "[(185)]", "pest or weed control at 0.1 % strength": "≥ 80"}
{"smiles": "O=C(NCC1CCOC1)c1cc(CCCc2ccccc2F)on1", "note": "(centres unmarked) [(245), N-(tetrahydrofuran-3-ylmethyl)-5-[3-(2-fluorophenyl)propyl]isoxazole-3-carboxamide]", "pest or weed control at 0.1 % strength": "≥ 80"}
{"smiles": "CC(OCc1cc(C(=O)NCC2CCOC2)no1)c1ccccc1", "note": "(centres unmarked) [(125), N-(tetrahydrofuran-3-ylmethyl)-5-[(1-phenylethyl)oxymethyl]isoxazole-3-carboxamide]", "pest or weed control at 0.1 % strength": "≥ 80"}
{"smiles": "O=C(NCC1CCOC1)c1cc(Cc2ccccc2F)on1", "note": "(centres unmarked) [(320), N-(tetrahydrofuran-3-ylmethyl)-5-(2-fluorobenzyl)isoxazole-3-carboxamide]", "pest or weed control at 0.1 % strength": "≥ 80"}
{"smiles": "O=C(NCC1CCOC1)c1cc(Cc2cc(Cl)cc(Cl)c2)on1", "note": "(centres unmarked) [(307), N-(tetrahydrofuran-3-ylmethyl)-5-(3,5-dichlorobenzyl)isoxazole-3-carboxamide]", "pest or weed control at 0.1 % strength": "≥ 80"}
{"smiles": "O=C(NCC1CCOC1)c1noc(COCc2ccccc2F)c1I", "note": "(centres unmarked) [(297), N-(tetrahydrofuran-3-ylmethyl)-5-(2-fluorobenzyloxymethyl)-4-iodoisoxazole-3-carboxamide]", "pest or weed control at 0.1 % strength": "≥ 80"}
{"smiles": "O=C(NCC1CCOC1)c1cc(Cc2ccc(Oc3ccccc3)cc2)on1", "note": "(centres unmarked) [(162), N-(tetrahydrofuran-3-ylmethyl)-5-(4-phenoxybenzyl)isoxazole-3-carboxamide]", "pest or weed control at 0.1 % strength": "≥ 80"}
{"smiles": "O=C(NCC1CCOC1)c1cc(COCc2c(F)c(F)cc(F)c2F)on1", "note": "(centres unmarked) [(269), N-(tetrahydrofuran-3-ylmethyl)-5-(2,3,5,6-tetrafluorobenzyloxymethyl)isoxazole-3-carboxamide]", "pest or weed control at 0.1 % strength": "≥ 80"}
